One may read the Emax as the size of the effect at its maximum, as opposed to the concentration needed. The term EC50 denotes the midpoint of the concentration-response curve. One may read the melting point as the temperature of the solid-liquid transition.

For one series, the target named is T1, NURR-1/RXRγ (Homo sapiens, UniProt P48443).
T1 construct: expressed in transfected cells; host or cells: Cos-7 cells
Nature of the series: Transactivation test, NURR-1-Gal4/RXRγ, luciferase reporter in Cos-7 cells. The class given is cell-based. To be noted: for Emax: COS-7, induction level relative to reference XCT0135908 at 2×10^−5 M (=100%), read-out: hNurr1_RXRgFL Emax (%); for EC50: Cos-7 cells, NURR-1-Gal4/RXRγ, luciferase reporter, read-out: hNurr1_RXRgFL EC50.

Another series has as its target T2, NURR-1/RXRα (Homo sapiens, UniProt P19793).
T2 construct: expressed in transfected cells; host or cells: Cos-7 cells
Nature of the series: Transactivation test, NURR-1-Gal4/RXRα, luciferase reporter in Cos-7 cells. Type of series: cell-based. The conditions noted are these: for Emax: COS-7, induction level relative to reference XCT0135908 at 2×10^−5 M (=100%), read-out: hNurr1_RXRaFL Emax (%); for EC50: Cos-7 cells, NURR-1-Gal4/RXRα, luciferase reporter, read-out: hNurr1_RXRaFL EC50. On the technique in general: Reporter assays use an easily measured gene product as a stand-in for the process of interest.

T1 sequence (P48443 whole entry): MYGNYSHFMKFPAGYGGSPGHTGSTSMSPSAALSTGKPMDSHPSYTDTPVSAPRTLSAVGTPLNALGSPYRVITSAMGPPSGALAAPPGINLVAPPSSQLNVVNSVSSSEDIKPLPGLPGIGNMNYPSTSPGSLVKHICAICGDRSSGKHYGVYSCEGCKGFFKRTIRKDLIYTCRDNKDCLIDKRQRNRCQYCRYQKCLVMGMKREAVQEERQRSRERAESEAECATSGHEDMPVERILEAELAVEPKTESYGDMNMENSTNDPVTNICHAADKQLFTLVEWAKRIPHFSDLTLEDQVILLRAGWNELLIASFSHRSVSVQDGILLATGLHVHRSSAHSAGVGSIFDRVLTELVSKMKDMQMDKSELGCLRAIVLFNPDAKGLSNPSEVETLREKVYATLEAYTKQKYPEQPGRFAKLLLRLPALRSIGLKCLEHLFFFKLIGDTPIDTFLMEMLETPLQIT
T1 sequence (P43354 whole entry partner): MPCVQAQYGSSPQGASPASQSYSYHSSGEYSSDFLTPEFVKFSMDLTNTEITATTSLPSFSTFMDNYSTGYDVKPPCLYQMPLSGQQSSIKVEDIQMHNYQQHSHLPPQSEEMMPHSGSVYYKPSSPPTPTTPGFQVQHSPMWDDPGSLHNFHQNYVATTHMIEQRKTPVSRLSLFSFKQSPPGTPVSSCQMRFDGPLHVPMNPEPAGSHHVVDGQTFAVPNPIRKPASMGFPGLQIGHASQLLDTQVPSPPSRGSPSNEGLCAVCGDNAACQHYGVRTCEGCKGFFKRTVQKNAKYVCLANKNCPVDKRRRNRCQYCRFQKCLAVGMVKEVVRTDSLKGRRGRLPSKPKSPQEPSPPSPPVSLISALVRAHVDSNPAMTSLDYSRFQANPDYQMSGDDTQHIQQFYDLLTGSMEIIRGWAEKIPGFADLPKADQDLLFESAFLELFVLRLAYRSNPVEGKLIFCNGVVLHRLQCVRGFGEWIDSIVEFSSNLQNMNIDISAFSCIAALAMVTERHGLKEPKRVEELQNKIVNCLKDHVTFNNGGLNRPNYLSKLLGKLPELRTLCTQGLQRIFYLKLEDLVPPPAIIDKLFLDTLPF
T1 sequence (P04386 1-147 partner limits assumed): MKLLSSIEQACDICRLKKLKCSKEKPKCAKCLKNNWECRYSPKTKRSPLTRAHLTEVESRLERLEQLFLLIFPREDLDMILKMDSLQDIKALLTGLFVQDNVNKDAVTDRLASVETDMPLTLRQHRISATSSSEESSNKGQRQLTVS
T2 sequence (P19793 whole entry): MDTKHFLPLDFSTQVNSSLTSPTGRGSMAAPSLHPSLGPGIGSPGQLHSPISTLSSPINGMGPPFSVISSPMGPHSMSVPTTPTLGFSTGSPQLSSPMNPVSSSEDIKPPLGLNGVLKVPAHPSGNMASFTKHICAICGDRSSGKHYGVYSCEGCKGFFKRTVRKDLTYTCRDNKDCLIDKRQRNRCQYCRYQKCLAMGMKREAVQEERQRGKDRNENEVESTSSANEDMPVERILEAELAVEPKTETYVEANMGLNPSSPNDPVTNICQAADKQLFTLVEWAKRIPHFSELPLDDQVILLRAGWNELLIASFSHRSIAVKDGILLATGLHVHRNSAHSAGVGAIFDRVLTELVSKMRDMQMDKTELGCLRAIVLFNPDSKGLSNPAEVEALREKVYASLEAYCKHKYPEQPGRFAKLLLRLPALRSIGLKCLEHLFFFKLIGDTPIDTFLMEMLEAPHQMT
T2 sequence (P43354 whole entry partner): as the sequence (P43354 whole entry partner) above
T2 sequence (P04386 1-147 partner limits assumed): as the sequence (P04386 1-147 partner limits assumed) above

With `CC1(C)Cc2cc(C(F)(F)F)ccc2N(c2cccc(N3CC(C(=O)O)C3)c2)C1` [Example 219, 1-[3-[3,3-dimethyl-6-(trifluoromethyl)-2,4-dihydroquinolin-1-yl]phenyl]azetidine-3-carboxylic acid], the melting point lay within 66 to 84 °C. Also, at NURR-1/RXRγ, the Emax amounted to 110% and the EC50 was 32 nM. For the same compound, on NURR-1/RXRα, the maximal response (Emax) came to 105% and the EC50 is 5 nM.
The corresponding values for `O=C(O)C1CN(c2cccc(N3CCCc4cc(C(F)(F)F)ccc43)c2)C1` [Example 220, 1-[3-[6-(trifluoromethyl)-3,4-dihydro-2H-quinolin-1-yl]phenyl]azetidine-3-carboxylic acid] are 57 to 62 °C, 90%, 14 nM, 92% and 6 nM.
In the case of `CC(C)c1ccc2c(c1)CCCN2c1cccc(N2CC(C(=O)[O-])C2)c1.[Na+]` [Example 221, sodium 1-[3-(6-isopropyl-3,4-dihydro-2H-1uinolin-1-yl)phenyl]azetidine-3-carboxylate], the melting point is 49 to 52 °C. For the same compound, on NURR-1/RXRγ, the maximum response (Emax) came to 92% and the EC50 turned out to be 228 nM. In addition, at NURR-1/RXRα, the maximal effect (Emax) stood at 97% and the 50% effective concentration (EC50) was 68 nM.
On to `CC(C)C1CN(c2cccc(N3CC(C(=O)O)C3)c2)c2ccc(C(F)(F)F)cc2O1` (centres unmarked) [Example 223, 1-[3-[2-isopropyl-7-(trifluoromethyl)-2,3-dihydro-1,4-benzoxazin-4-yl]phenyl]azetidine-3-carboxylic acid], for which the melting point was in the range of 64 to 71 °C. On NURR-1/RXRγ, the Emax is 81% and the EC50 worked out at 48 nM. For the same compound, on NURR-1/RXRα, the Emax is 80% and the EC50 came out at 25 nM.
In turn, `CC1(C)CN(c2cccc(N3CC(C(=O)O)C3)c2)c2ccc(Cl)cc2O1` [Example 224, 1-[3-(7-chloro-2,2-dimtethyl-3H-1,4-benzoxazin-4-yl)phenyl]azetidine-3-carboxylic acid] registered a melting point of 66 to 71 °C. At NURR-1/RXRγ, the Emax came out at 93% and the EC50 turned out to be 65 nM. For the same compound, at NURR-1/RXRα, the Emax is 110% and the concentration giving a half-maximal response (EC50) amounted to 38 nM.
The corresponding values for `CC1(C)CN(c2cccc(N3CC(C(=O)O)C3)c2)c2ccc(OC(F)(F)F)cc2O1` [Example 226, 1-[3-[2,2-dimethyl-7-(trifluoromethyoxy)-3H-1,4-benzoxazin-4-yl]phenyl]azetidine-3-carboxylic acid] are 69 to 76 °C, 106%, 156 nM, 103% and 71 nM.
Take `Cc1ccc2c(c1)OC(C)(C)CN2c1cccc(N2CC(C(=O)O)C2)c1` [Example 227, 1-[3-(2,2,7-trimethyl-3H-1,4-benzoxazin-4-yl)phenyl]azetidine-3-carboxylic acid]: the melting point lay within 68 to 78 °C. Besides, on NURR-1/RXRγ, the Emax came to 93% and the EC50 was 181 nM. Also, on NURR-1/RXRα, the Emax was 104% and the concentration giving a half-maximal response (EC50) is 78 nM.
The like results for `CC1(C)CN(c2cccc(N3CC(C(=O)O)C3)c2)c2ccc(C3CC3)cc2O1` [Example 229, 1-[3-(7-cyclopropyl-2,2-dimethyl-3H-1,4-benzoxazin-4yl)phenyl]azetidine-3-carboxylic acid] were, in that order, 67 to 71 °C, 104%, 420 nM, 104% and 243 nM.
The corresponding values for `CC(C)c1ccc2c(c1)OCCN2c1cccc(N2CC(C(=O)O)C2)c1` [Example 232, 1-[3-(7-isopropyl-2,3-dihydro-1,4-benzoxazin-4-yl)phenyl]azetidine-3-carboxylic acid] are 48 to 51 °C, 99%, 465 nM, 97% and 386 nM.
The like results for `COc1ccc2c(c1)OC(C)(C)CN2c1cccc(N2CC(C(=O)O)C2)c1` [Example 233, 1-[3-(7-methoxy-2,2-dimethyl-3H-1,4-benzoxazin-4-yl)phenyl]azetidine-3-catboxylic aicd] were, in that order, 54 to 56 °C, 52%, 1500 nM, 97% and 1570 nM.
With `CC(C)c1ccc2c(c1)OC(C)(C)CCN2c1cccc(N2CC(C(=O)O)C2)c1` [Example 234, 1-[3-(8-isopropyl-2,2-dimethyl-3,4-dihydro-1,5-benzoxazepin-5-yl)phenyl]azetidine-3-carboxylic acid], the melting point was in the range of 64 to 68 °C. Moreover, at NURR-1/RXRγ, the Emax amounted to 81% and the EC50 was determined as 2260 nM. In addition, at NURR-1/RXRα, the maximal effect (Emax) was 95% and the 50% effective concentration (EC50) stood at 1710 nM.
The compound `CCc1ccc2c(c1)OC(C)(C)CN2c1cccc(N2CC(C(=O)[O-])C2)c1.[Na+]` [Example 235, sodium 1-[3-(7-ethyl-2,2-dimethyl-3H-1,4-benzoxazin-4-yl)phenyl]azetidine-3-carboxylate] gave a melting point of 160 to 188 °C. For the same compound, at NURR-1/RXRγ, the maximum response (Emax) is 107% and the EC50 came to 174 nM. On NURR-1/RXRα, the maximal response (Emax) was 102% and the EC50 was 92 nM.
The like results for `COc1cc(N2CC(C(=O)O)C2)cc(N2CC(C)(C)Oc3cc(C(F)(F)F)ccc32)c1` [Example 236, 1-[3-[2,2-dimethyl-7-(trifluoromethyl)-3H-1,4-benzoxazin-4-yl]-5-methoxyphenyl]azetidine-3-carboxylic acid] were, in that order, 70 to 75 °C, 98%, 63 nM, 93% and 21 nM.
The like results for `Cc1ccc(N2CC(C(=O)O)C2)cc1N1CC(C)(C)Oc2cc(C(F)(F)F)ccc21` [Example 237, 1-[3-[2,2-dimethyl-7-(trifluoromethyl)-3H-1,4-benzoxazin-4-yl]-4-methylphenyl]azetidine-3-carboxylic acid] were, in that order, 74 to 83 °C, 77%, 257 nM, 82% and 57 nM.
The like results for `Cc1c(N2CC(C(=O)O)C2)cccc1N1CC(C)(C)Oc2cc(C(F)(F)F)ccc21` [Example 238] were, in that order, 168 to 171 °C, 82%, 154 nM, 86% and 103 nM.
`Cc1ccc(N2CC(C)(C)Oc3cc(C(F)(F)F)ccc32)cc1N1CC(C(=O)O)C1` [Example 239, 1-[5-[2,2-dimethyl-7-(trifluoromethyl)-3H-1,4-benzoxazin-4-yl]2-methylphenyl]azetidine-3-carboxylic acid]: the melting point lay in the range of 96 to 99 °C. On NURR-1/RXRγ, the maximal response (Emax) stood at 102% and the EC50 came out at 6110 nM. Also, at NURR-1/RXRα, the Emax came to 118% and the EC50 turned out to be 234 nM.

Source of the values: US20170066717A1, “NEW PHENYLAZETIDINECARBOXYLATE OR -CARBOXAMIDE COMPOUNDS” (INVENTIVA, priority 2014, published 2017).
